The text below walks through data of ChEMBL document CHEMBL1132761, “Novel Dmt-Tic dipeptide analogues as selective delta-opioid receptor antagonists” (Bioorg Med Chem Lett, 2000).

Non-standard residues stand in square brackets, D forms with d. Residues, ends and D or L forms follow the SMILES beside them. Dmt = Cc1cc(O)cc(C)c1C[C@H](N)C(=O)O; Tic = O=C(O)[C@@H]1Cc2ccccc2CN1

Assay [1] deals with Kappa-type opioid receptor (Homo sapiens, UniProt P41145). Kind of assay: Compound was evaluated for binding affinity towards Opioid receptor kappa 1 by displacing 125 I-DPDYN.
Chain of Kappa-type opioid receptor (P41145 whole entry): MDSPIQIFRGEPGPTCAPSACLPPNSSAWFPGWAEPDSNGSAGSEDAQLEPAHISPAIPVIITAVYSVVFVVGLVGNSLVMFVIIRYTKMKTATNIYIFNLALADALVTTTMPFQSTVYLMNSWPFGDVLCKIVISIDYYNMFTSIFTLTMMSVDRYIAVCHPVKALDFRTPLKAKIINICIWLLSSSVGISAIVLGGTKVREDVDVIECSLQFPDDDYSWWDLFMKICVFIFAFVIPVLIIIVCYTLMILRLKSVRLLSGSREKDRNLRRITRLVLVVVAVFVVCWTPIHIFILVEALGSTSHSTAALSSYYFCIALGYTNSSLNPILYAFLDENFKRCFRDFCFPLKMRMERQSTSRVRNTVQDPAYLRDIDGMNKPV
In assay [2] the target is T1, Delta-type opioid receptor (Homo sapiens, UniProt P41143). In words: Compound was evaluated for binding affinity towards Opioid receptor delta 1 by displacing 125 I-deltorphin II.
T1 sequence (P41143 whole entry): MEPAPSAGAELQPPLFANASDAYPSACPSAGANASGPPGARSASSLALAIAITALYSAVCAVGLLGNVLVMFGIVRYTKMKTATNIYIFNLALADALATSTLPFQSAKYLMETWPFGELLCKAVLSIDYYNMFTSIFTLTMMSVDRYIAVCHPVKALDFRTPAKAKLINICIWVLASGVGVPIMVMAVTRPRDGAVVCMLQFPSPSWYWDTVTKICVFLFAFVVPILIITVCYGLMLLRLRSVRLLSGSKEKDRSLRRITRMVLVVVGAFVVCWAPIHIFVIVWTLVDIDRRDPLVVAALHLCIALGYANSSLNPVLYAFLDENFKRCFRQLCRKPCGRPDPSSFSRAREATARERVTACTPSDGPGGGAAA
Assay [3] addresses Mu-type opioid receptor (Homo sapiens, UniProt P35372). In words: Compound was evaluated for binding affinity towards Opioid receptor mu 1 by displacing 125 I-FK-33824.
Assay [4] addresses Opioid receptors; mu & delta (Homo sapiens) (UniProt P41143+P35372). In words: Ratio of binding affinity of compound to mu receptor compared to that of delta receptor (Mu/Delta). It counts as protein assay.
Assay [5] addresses T1, Delta-type opioid receptor. Kind of assay: Compound was tested for its ability to block the effect of selective delta opioid agonist SNC-80 in the functional assay.
Assay [6] addresses T1, Delta-type opioid receptor. Kind of assay: Effective concentration for agonistic activity towards delta opioid receptor was determined by [35S]GTP-gamma-S functional assay. (GTPγS is a poorly hydrolysed GTP analogue; its binding reports G protein activation.)

What is called IC50 is the point on the concentration scale where inhibition reaches its midpoint. Read a high IC50 as weaker potency. In general, EC50 refers to the concentration that produces a half-maximal response. Low values mean an effect from little substance, high ones a need for much substance.

Chain of Opioid receptors; mu & delta (Homo sapiens) (P35372 whole entry, looked up): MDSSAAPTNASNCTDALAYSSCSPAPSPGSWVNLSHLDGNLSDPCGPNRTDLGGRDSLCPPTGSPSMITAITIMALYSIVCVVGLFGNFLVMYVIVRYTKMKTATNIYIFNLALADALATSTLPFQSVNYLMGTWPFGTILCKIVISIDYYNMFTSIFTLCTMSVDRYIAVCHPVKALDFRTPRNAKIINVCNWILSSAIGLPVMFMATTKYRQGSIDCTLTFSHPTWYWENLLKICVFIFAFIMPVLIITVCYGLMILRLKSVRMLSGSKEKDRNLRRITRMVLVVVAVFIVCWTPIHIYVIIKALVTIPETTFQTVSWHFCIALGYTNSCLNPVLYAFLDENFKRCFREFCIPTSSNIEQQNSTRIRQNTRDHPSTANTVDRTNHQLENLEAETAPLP
Chain of Opioid receptors; mu & delta (Homo sapiens) (P41143 whole entry, looked up): as the sequence (P41143 whole entry) above
Chain of Mu-type opioid receptor (P35372 whole entry): as the sequence (P35372 whole entry, looked up) above

`Cc1cc(O)cc(C)c1CC(N)C(=O)N1Cc2cc(O)ccc2C[C@H]1C(=O)O` (stereo partly drawn): the results for the IC50 in assay [1], in assay [2] and in assay [3] were 9290 nM, 236 nM and 2160 nM, respectively. Moreover, the Ratio in assay [4] is 9.2.

As to `COc1ccc2c(c1)CN(C(=O)[C@@H](N)Cc1c(C)cc(O)cc1C)[C@H](C(=O)O)C2`, the figures for the half-maximal inhibitory concentration (IC50) in assay [1], in assay [2] and in assay [3] were 9440 nM, 12.1 nM and 2870 nM, respectively. Moreover, the Ratio in assay [4] stood at 237.

Consider `Cc1cc(O)cc(C)c1C[C@H](N)C(=O)N1Cc2c(cc(Br)c(O)c2Br)C[C@H]1C(=O)O`, for which the results for the IC50 in assay [1], in assay [2] and in assay [3] were greater than 10000 nM, 1080 nM and 1240 nM, respectively. The Ratio in assay [4] came to 1.1.

On to `COc1cc2c(cc1-c1ccccc1)C[C@@H](C(=O)O)N(C(=O)C(N)Cc1c(C)cc(O)cc1C)C2` (stereo partly drawn), for which the IC50 in assay [1] is greater than 10000 nM; in assay [2], 2540 nM; in assay [3], greater than 10000 nM.

The compound `COc1ccc(-c2ccc3c(c2)CN(C(=O)C(N)Cc2c(C)cc(O)cc2C)[C@H](C(=O)O)C3)cc1` (stereo partly drawn) came in with a Ke in assay [5] of 38.6 nM. Also, the concentration for half-maximal inhibition (IC50) in assay [1] was greater than 10000 nM; in assay [2], 4.9 nM; in assay [3], 2650 nM. Moreover, the Ratio in assay [4] was found to be 546.

Consider `Cc1cc(O)cc(C)c1CC(N)C(=O)N1Cc2cc(-c3ccsc3)ccc2C[C@H]1C(=O)O` (stereo partly drawn), for which the half-maximal inhibitory concentration (IC50) in assay [1] came out at 2730 nM; in assay [2], 13.5 nM; in assay [3] it was 142 nM. In assay [4], the Ratio was 10.5.

Consider `COc1ccc(-c2cc3c(cc2OC)CN(C(=O)C(N)Cc2c(C)cc(O)cc2C)[C@H](C(=O)O)C3)cc1` (stereo partly drawn), for which the results for the 50% inhibitory concentration (IC50) in assay [1], in assay [2] and in assay [3] were greater than 10000 nM, 1520 nM and 4640 nM, respectively. In assay [4], the Ratio came to 3.1.

Take `COc1ccc2c(c1)CN(C(=O)C(N)Cc1c(C)cc(O)cc1C)[C@H](C(=O)O)C2` (stereo partly drawn): the results for the half-inhibitory concentration (IC50) in assay [1], in assay [2] and in assay [3] were 9000 nM, 10.9 nM and 2280 nM, respectively. The Ratio in assay [4] was 211.

Take `Cc1cc(O)cc(C)c1CC(N)C(=O)N1Cc2cc(-c3cc4ccccc4o3)ccc2C[C@H]1C(=O)O` (stereo partly drawn): the IC50 in assay [1] is greater than 10000 nM; in assay [2], 52.7 nM; in assay [3] it was 2440 nM.

As to `COc1c(Br)cc2c(c1Br)CN(C(=O)[C@H](N)Cc1c(C)cc(O)cc1C)[C@H](C(=O)O)C2`, the figures for the IC50 in assay [2] and in assay [3] were 571 nM and 8240 nM, respectively. In addition, the Ratio in assay [4] came to 14.4.

In the case of `Cc1cc(O)cc(C)c1C[C@@H](N)C(=O)N1Cc2c(cc(Br)c(O)c2Br)C[C@H]1C(=O)O`, the IC50 in assay [2] was greater than 10000 nM; in assay [3], 8130 nM.

In the case of `Cc1cc(O)cc(C)c1C[C@@H](N)C(=O)N1Cc2cc(-c3ccccc3)ccc2C[C@H]1C(=O)O`, the IC50 in assay [1] is greater than 10000 nM; in assay [2], 122 nM; in assay [3], 1940 nM. In addition, in assay [4], the Ratio came to 15.9.

Turning to `COc1cc2c(cc1-c1ccc(F)cc1)C[C@@H](C(=O)O)N(C(=O)C(N)Cc1c(C)cc(O)cc1C)C2` (stereo partly drawn), the results for the IC50 in assay [1], in assay [2] and in assay [3] were greater than 10000 nM, 1160 nM and 7220 nM, respectively. Also, the Ratio in assay [4] worked out at 6.2.

As for `COc1c(Br)cc2c(c1Br)CN(C(=O)[C@@H](N)Cc1c(C)cc(O)cc1C)[C@H](C(=O)O)C2`, the EC50 in assay [6] came to 28 nM. Besides, the IC50 is greater than 10000 nM in assay [1], 2.5 nM in assay [2] and 1670 nM in assay [3]. Also, in assay [4], the Ratio is 505.

Take `Cc1cc(O)cc(C)c1C[C@H](N)C(=O)N1Cc2ccccc2C[C@H]1C(=O)O` (H-[Dmt]-[Tic]-OH): the Ke in assay [5] was determined as 5.3 nM. The IC50 turned out to be 37500 nM in assay [1], 1.6 nM in assay [2] and 894 nM in assay [3]. Also, in assay [4], the Ratio was determined as 558.

Turning to `COc1ccc(-c2ccc3c(c2)CN(C(=O)[C@@H](N)Cc2c(C)cc(O)cc2C)[C@H](C(=O)O)C3)cc1`, the IC50 was greater than 10000 nM in assay [1], 5.8 nM in assay [2] and 1140 nM in assay [3]. Also, the Ratio in assay [4] amounted to 211.

In assay [5], `Cc1cc(O)cc(C)c1C[C@H](N)C(=O)N1Cc2cc(-c3ccc(F)cc3)ccc2C[C@H]1C(=O)O` registered a Ke of 11.5 nM. The IC50 in assay [1] was 7560 nM; in assay [2], 3.8 nM; in assay [3], 587 nM. For the same compound, the Ratio in assay [4] was found to be 155.

For `Cc1cc(O)cc(C)c1C[C@@H](N)C(=O)N1Cc2cc(-c3ccc(F)cc3)ccc2C[C@H]1C(=O)O`, the half-inhibitory concentration (IC50) in assay [1] is greater than 10000 nM; in assay [2], 81.7 nM.

Regarding `Cc1cc(O)cc(C)c1C[C@H](N)C(=O)N1Cc2cc(-c3ccccc3)ccc2C[C@H]1C(=O)O`, the half-maximal inhibitory concentration (IC50) in assay [1] is 5740 nM; in assay [2] it was 13.2 nM; in assay [3] it was 635 nM. Besides, in assay [4], the Ratio came out at 48.1.
